Reference: PMC7082118 (Oncotarget, 2020)
Where two headings read alike, the source gives them in different places.

Experiments:
CSF1R/FMS = biological target: T1, CSF1R/FMS (Homo sapiens, UniProt P07333); test: KINOMEscan kinase binding assay
T1 construct: purchased Eurofins (KINOMEscan service)
Procedure: (§1) Kd values were calculated from duplicate 11-point dose-response curves.
(§2) KINOMEscan kinase binding assays were performed at a Eurofins laboratory as previously described.

FLT1 = biological target: T2, FLT1 (Homo sapiens, UniProt P17948); test: KINOMEscan kinase binding assay
T2 construct: purchased Eurofins (KINOMEscan service)
Procedure: as §1, §2

FLT4 = biological target: T3, FLT4 (Homo sapiens, UniProt P35916); test: KINOMEscan kinase binding assay
T3 construct: purchased Eurofins (KINOMEscan service)
Procedure: as §1, §2

KDR/VEGFR2 = biological target: T4, KDR/VEGFR2 (Homo sapiens, UniProt P35968); test: KINOMEscan kinase binding assay
T4 construct: purchased Eurofins (KINOMEscan service)
Procedure: as §1, §2

KIT = biological target: T5, KIT (Homo sapiens, UniProt P10721); test: KINOMEscan kinase binding assay; conditions: kinase KIT
T5 construct: purchased Eurofins (KINOMEscan service)
Procedure: as §1, §2

MEK5 = biological target: T6, MEK5 (Homo sapiens, UniProt Q13163); test: KINOMEscan kinase binding assay; conditions: kinase MEK5 (Entrez MAP2K5)
T6 construct: purchased Eurofins (KINOMEscan service)
Procedure: as §1, §2

PDGFRα = biological target: T7, PDGFRα (Homo sapiens, UniProt P16234); test: KINOMEscan kinase binding assay; conditions: kinase PDGFRA (PDGFRA)
T7 construct: purchased Eurofins (KINOMEscan service)
Procedure: as §1, §2

PDGFRβ = biological target: T8, PDGFRβ (Homo sapiens, UniProt P09619); test: KINOMEscan kinase binding assay; conditions: kinase PDGFRB (PDGFRB)
T8 construct: purchased Eurofins (KINOMEscan service)
Procedure: as §1, §2

RET = biological target: T9, RET (Homo sapiens, UniProt P07949); test: KINOMEscan kinase binding assay
T9 construct: purchased Eurofins (KINOMEscan service)
Procedure: as §1, §2

ULK2 = biological target: T10, ULK2 (Homo sapiens, UniProt Q8IYT8); test: KINOMEscan kinase binding assay; conditions: kinase ULK2 (ULK2)
T10 construct: purchased Eurofins (KINOMEscan service)
T10 sequence (Q8IYT8 1-1036): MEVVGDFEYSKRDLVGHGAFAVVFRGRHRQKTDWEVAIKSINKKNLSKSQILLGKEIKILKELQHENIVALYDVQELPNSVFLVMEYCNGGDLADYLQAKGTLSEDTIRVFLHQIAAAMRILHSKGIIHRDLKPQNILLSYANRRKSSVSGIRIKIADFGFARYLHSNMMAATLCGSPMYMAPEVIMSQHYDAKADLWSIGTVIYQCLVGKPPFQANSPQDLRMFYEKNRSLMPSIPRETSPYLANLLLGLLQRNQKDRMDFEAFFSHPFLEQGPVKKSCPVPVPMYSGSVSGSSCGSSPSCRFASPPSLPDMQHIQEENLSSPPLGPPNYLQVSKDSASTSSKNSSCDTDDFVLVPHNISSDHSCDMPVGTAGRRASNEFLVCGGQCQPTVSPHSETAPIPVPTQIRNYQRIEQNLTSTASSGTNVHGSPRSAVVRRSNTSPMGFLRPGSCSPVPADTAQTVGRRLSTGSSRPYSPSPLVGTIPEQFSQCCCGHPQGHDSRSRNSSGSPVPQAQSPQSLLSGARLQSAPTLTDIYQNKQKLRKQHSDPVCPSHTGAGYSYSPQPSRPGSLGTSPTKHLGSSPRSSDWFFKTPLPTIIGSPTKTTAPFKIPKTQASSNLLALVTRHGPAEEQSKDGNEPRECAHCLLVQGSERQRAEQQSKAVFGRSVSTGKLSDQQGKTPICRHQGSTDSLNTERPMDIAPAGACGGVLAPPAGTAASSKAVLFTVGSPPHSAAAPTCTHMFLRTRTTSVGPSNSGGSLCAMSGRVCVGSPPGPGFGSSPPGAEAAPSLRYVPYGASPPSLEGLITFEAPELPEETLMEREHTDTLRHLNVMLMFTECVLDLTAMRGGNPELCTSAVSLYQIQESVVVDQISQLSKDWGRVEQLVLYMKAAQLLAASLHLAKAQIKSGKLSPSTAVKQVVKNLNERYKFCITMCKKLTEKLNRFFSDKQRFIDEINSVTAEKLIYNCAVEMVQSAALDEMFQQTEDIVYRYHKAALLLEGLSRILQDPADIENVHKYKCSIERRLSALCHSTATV
Procedure: as §1, §2

FLT3 signaling = test: FLT3 inhibitor washout experiment in MOLM-14 cells; format: cell-based, human
EOL-1 cells = test: Cell viability assay (CellTiter-Glo 2.0); format: cell-based, human; conditions: Homo sapiens, EOL1, 72 h; EOL-1, wild-type FLT3 with FIP1L-PDGFRα, 3 days
Procedure: (§3) Human AML cell lines MV4-11, Kasumi-1, HL-60, and THP-1 were purchased from the American Type Culture Collection (Manassas, Virginia, USA). MV4-11 cells were cultured in Iscove’s Modified Dulbecco’s Medium (IMDM; Thermo Fisher Scientific, Waltham, Massachusetts, USA) supplemented with 10% (vol/vol) heat-inactivated fetal bovine serum (FBS; GE Healthcare Ltd, Chicago, Illinois, USA). […] HL-60 cells were cultured in IMDM supplemented with 20% (vol/vol) heat-inactivated FBS. […] Human AML cell lines, MOLM-13, MOLM-14, EOL-1, and OCI-AML3, were purchased from Leibniz-Institut DSMZ-Deutsche Sammlung von Mikroorganismen und Zellkulturen GmbH.
(§4) The amount of ATP in viable cells was quantified as a luminescent signal using the CellTiter-Glo 2.0 Assay (Promega Corporation, Madison, Wisconsin, USA) and EnVision (PerkinElmer Inc, Waltham, Massachusetts, USA) to determine the number of viable cells according to the manufacturers’ instructions.

HL-60 cells = test: Cell viability assay (CellTiter-Glo 2.0); format: cell-based, human; conditions: Homo sapiens, 72 h; HL-60, wild-type FLT3, 3 days
Procedure: as §3, §4

Kasumi-1 cells = test: Cell viability assay (CellTiter-Glo 2.0); format: cell-based, human; conditions: Homo sapiens, Kasumi 1, 72 h
Procedure: as §3, §4

MOLM-13 cells = test: Cell viability assay (CellTiter-Glo 2.0); format: cell-based, human; conditions: Homo sapiens
Procedure: as §3, §4

MOLM-14 cells = test: Cell viability assay (CellTiter-Glo 2.0); format: cell-based, human; conditions: Homo sapiens, MOLM-14, 72 h, 3 days, read-out: IC50, cell viability
Procedure: as §3, §4

MV4-11 cells = test: Cell viability assay (CellTiter-Glo 2.0); format: cell-based, human; conditions: Homo sapiens, 72 h; MV4-11, FLT3-ITD, 3 days
Procedure: as §3, §4

OCI-AML3 cells = test: Cell viability assay (CellTiter-Glo 2.0); format: cell-based, human; conditions: Homo sapiens, OCI-AML-3, 72 h; OCI-AML3, wild-type FLT3, 3 days; read-out: IC50, cell viability
Procedure: as §3, §4

THP-1 cells = test: Cell viability assay (CellTiter-Glo 2.0); format: cell-based, human; conditions: Homo sapiens, 72 h; THP-1, wild-type FLT3, 3 days; read-out: IC50, cell viability
Procedure: as §3, §4

MOLM-14-MR2 tumors = test: MOLM-14-MR2 xenograft mouse model; format: in vivo; conditions: MOLM-14-MR2 tumors (NRAS mutated), oral once per day
MOLM-14-MR cells = test: cells; conditions: Homo sapiens, 72 h, read-out: IC50, cell viability
MOLM-14-MR2 cells = test: cells; conditions: Homo sapiens, 72 h, read-out: IC50, cell viability
MOLM-13-QR cells = test: cells; conditions: Homo sapiens, read-out: IC50, cell viability
MOLM-13-QR2 cells = test: cells; conditions: Homo sapiens, read-out: IC50, cell viability
[1] = system: midostaurin-resistant MOLM-14 cells; test: cells; conditions: Homo sapiens, MOLM-14, read-out: IC50 against midostaurin-resistant MOLM-14 cells
MV4-11 tumors = test: MV4-11 xenograft mouse model; conditions: Figure 3B

T4 sequence (P35968 20-1356): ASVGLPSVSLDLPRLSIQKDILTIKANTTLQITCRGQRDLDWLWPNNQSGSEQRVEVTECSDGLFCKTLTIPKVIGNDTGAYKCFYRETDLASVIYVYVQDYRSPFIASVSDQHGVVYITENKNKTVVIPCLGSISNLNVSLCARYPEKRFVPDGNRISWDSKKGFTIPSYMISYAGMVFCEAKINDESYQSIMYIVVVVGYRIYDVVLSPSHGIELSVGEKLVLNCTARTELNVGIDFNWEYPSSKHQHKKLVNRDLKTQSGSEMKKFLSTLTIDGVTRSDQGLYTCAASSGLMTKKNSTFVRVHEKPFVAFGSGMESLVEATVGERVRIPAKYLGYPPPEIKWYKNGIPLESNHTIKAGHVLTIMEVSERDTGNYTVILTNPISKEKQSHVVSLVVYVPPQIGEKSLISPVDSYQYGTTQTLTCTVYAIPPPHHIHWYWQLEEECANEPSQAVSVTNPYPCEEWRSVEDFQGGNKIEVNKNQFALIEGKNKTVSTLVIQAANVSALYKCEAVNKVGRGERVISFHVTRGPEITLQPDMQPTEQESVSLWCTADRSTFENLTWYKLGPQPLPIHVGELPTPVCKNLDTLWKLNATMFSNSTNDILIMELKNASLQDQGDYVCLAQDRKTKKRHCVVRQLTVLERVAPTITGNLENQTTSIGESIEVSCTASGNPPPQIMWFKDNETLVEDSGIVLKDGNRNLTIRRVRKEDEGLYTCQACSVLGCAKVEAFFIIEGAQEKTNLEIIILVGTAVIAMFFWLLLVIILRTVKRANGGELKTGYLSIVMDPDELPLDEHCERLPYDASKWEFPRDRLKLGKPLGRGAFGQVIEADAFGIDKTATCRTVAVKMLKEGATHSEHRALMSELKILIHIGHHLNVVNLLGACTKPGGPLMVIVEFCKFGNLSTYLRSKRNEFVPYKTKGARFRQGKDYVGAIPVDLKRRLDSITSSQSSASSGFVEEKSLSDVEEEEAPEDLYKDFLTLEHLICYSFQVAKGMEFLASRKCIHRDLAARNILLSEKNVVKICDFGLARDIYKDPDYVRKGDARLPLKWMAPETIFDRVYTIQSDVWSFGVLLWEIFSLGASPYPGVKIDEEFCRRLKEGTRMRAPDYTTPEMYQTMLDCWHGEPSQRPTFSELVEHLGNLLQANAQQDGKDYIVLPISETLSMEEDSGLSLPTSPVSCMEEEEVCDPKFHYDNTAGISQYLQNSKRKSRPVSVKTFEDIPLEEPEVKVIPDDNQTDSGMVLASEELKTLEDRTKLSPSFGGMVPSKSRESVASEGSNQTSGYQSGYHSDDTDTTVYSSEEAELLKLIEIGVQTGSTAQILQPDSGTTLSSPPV
T5 sequence (P10721 26-976): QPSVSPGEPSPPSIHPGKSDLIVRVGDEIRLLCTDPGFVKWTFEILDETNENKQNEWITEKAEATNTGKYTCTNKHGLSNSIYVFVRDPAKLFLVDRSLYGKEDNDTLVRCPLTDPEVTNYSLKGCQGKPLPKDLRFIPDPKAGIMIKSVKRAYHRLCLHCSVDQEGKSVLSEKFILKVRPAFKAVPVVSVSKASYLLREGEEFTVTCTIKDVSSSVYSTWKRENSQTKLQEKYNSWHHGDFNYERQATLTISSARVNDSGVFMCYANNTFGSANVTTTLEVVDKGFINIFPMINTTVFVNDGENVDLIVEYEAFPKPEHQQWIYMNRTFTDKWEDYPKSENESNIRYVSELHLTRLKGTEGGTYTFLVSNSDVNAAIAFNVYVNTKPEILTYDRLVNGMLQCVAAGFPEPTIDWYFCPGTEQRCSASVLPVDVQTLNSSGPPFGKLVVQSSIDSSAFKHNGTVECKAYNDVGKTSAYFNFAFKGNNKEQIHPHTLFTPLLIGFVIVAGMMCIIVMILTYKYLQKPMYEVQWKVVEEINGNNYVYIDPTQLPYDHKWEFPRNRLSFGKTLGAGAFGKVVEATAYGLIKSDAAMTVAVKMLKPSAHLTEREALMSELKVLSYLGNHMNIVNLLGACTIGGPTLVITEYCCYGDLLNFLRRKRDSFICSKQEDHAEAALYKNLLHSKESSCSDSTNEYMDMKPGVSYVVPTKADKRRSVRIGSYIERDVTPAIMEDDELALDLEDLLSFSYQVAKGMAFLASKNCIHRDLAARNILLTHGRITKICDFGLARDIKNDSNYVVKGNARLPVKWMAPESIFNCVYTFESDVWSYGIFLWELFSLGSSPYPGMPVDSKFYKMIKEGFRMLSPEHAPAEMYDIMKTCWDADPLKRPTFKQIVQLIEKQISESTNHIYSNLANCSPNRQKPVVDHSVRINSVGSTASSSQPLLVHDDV
T1 sequence (P07333 20-972): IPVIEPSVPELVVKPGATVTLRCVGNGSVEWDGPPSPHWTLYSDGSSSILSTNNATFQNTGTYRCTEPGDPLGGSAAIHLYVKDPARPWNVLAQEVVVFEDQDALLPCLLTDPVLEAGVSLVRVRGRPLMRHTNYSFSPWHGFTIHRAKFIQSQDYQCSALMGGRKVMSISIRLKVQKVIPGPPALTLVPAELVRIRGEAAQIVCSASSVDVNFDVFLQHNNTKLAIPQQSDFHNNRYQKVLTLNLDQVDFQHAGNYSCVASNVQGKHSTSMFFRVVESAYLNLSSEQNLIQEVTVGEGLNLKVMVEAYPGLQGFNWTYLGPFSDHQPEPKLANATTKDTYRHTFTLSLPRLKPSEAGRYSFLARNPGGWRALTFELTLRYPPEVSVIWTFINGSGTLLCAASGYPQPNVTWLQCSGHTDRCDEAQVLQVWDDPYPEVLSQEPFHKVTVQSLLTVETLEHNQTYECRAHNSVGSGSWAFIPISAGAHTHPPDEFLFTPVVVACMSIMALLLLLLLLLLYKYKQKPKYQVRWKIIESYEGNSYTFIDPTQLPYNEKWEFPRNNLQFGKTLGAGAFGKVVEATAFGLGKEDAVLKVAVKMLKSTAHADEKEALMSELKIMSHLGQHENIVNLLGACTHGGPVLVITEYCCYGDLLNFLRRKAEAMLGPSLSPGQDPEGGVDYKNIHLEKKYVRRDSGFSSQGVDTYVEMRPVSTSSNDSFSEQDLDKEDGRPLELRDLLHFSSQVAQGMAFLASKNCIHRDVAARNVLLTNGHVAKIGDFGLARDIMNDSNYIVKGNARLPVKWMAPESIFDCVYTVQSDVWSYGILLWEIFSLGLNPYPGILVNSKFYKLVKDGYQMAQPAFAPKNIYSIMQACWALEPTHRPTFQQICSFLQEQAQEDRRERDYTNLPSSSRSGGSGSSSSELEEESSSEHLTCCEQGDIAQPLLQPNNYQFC
T3 sequence (P35916 25-1363): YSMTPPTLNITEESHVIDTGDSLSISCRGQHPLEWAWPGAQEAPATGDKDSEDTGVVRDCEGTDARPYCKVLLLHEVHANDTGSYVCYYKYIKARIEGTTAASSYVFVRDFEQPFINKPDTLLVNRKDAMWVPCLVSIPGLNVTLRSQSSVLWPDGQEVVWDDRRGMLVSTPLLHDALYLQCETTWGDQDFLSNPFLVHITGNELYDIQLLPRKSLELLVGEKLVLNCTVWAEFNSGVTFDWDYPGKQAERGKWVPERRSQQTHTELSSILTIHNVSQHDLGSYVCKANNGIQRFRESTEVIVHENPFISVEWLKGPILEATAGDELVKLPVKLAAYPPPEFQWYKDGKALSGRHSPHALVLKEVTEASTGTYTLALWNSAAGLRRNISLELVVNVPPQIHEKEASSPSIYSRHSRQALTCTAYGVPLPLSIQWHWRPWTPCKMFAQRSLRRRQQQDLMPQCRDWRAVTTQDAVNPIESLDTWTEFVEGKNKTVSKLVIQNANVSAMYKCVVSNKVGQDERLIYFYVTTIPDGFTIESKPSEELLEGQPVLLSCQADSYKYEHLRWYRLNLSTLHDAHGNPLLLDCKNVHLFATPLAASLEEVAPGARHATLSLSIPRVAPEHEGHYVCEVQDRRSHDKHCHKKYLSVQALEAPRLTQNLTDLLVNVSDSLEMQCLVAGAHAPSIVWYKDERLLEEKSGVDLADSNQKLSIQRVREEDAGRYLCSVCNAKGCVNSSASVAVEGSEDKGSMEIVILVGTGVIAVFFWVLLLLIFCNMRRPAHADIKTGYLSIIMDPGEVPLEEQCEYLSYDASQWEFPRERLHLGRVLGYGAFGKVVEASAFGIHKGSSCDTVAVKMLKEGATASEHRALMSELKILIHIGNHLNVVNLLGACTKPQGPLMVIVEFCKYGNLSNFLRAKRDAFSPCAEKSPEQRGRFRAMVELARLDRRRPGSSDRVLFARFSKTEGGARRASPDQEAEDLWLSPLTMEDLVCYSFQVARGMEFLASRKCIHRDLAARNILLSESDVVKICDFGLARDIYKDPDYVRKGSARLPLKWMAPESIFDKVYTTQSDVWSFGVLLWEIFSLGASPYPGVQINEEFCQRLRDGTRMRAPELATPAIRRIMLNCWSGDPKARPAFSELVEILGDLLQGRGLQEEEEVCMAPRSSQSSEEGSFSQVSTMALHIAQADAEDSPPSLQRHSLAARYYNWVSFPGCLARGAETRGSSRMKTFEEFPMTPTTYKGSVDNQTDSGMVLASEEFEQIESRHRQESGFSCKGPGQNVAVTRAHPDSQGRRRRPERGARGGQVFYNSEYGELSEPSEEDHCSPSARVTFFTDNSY
T6 sequence (Q13163 whole entry): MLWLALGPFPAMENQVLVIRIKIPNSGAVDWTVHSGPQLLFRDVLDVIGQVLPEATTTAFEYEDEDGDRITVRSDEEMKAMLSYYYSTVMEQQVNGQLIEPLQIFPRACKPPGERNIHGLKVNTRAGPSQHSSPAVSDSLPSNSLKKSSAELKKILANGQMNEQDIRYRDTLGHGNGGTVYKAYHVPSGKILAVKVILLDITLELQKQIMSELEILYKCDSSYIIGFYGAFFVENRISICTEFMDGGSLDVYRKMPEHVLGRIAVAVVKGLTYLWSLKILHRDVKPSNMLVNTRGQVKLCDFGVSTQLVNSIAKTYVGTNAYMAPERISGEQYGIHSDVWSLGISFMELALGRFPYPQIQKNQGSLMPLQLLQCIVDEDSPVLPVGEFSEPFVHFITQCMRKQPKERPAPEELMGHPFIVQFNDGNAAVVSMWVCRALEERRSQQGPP

For `CCc1nc(C(N)=O)c(Nc2ccc(N3CCC(N4CCN(C)CC4)CC3)c(OC)c2)nc1NC1CCOCC1` [Gilteritinib, gilteritinib], the Kd (CSF1R/FMS) was 46 nM, the Kd (FLT1) was 380 nM and the Kd (FLT4) was 150 nM. It also gave a Kd (KDR/VEGFR2) of 100 nM, a Kd (KIT) of 86 nM and a Kd (MEK5) of 7.8 nM. The Kd (PDGFRα) was 53 nM, the Kd (PDGFRβ) was 240 nM and the Kd (RET) was 11 nM. The Kd (ULK2) was 700 nM, the “Durability of inhibition of FLT3 and ERK phosphorylation after removal of inhibitor” value (FLT3 signaling) was “no significant inhibitory activity starting 1 hour after removal” and the “Long-term durability of inhibition of FLT3 signaling after compound withdrawal” value (FLT3 signaling) was “no longer able to inhibit FLT3 signaling at 24 hours”. For the same compound, the IC50 (EOL-1 cells) was 30.9 nM, the IC50 (HL-60 cells) was 391 nM and the IC50 (Kasumi-1 cells) was 160 nM. The IC50 (MOLM-13 cells; 72 h, MOLM-13, FLT3-ITD, 3 days, Supplementary Table 3) was 10 nM, the IC50 (MOLM-13 cells; parental MOLM-13, FLT3-ITD, Supplementary Table 4) was 7.89 nM and the IC50 (MOLM-14 cells; MOLM-14, FLT3-ITD, Supplementary Table 3) was 7.41 nM. The IC50 (MOLM-14 cells; parental MOLM-14, FLT3-ITD, Figure 4B) was 7.87 nM, the IC50 (MV4-11 cells) was 2.01 nM and the IC50 (OCI-AML3 cells) was 1420 nM. For the same compound, the IC50 (THP-1 cells) was 1530 nM, the “EC50, tumor growth inhibition” value (MOLM-14-MR2 tumors) was > 10 mg/kg and the IC50 (MOLM-14-MR cells) was 49.3 nM. The IC50 (MOLM-14-MR2 cells) was 29.1 nM, the IC50 (MOLM-13-QR cells) was 9.68 nM and the IC50 (MOLM-13-QR2 cells) was 43 nM. It also gave an IC50 [1] of 29.1 to 49.3 nM, a TGI (MV4-11 tumors; 1 mg/kg oral once per day) of 48% and a TGI (MV4-11 tumors; 3 mg/kg oral once per day) of 82%. The TGI (MV4-11 tumors; 10 mg/kg oral once per day) was 100% and the “EC90, tumor growth inhibition” value (MV4-11 tumors; oral once per day) was 5.06 mg/kg.
